Assay results reported in ChEMBL document CHEMBL4229505, “4-Aminophenyl acetamides and propanamides as potent transient receptor potential vanilloid 1 (TRPV1) ligands” (Bioorg Med Chem, 2018).
The source made the active and inactive calls. The calls are words filed in the database; no cut-off is given here.

Experiments:
[1] = biological target: T1, Transient receptor potential cation channel subfamily V member 1 (Homo sapiens, UniProt Q8NER1); test: Antagonist activity at human TRPV1 expressed in CHOK1 cells assessed as reduction in capsaicin-induced intracellular calcium level preincubated for 6 mins followed by capsaicin addition by Fluo-4 dye based FLIPR assay; assay type: cell-based
T1 sequence (Q8NER1 whole entry): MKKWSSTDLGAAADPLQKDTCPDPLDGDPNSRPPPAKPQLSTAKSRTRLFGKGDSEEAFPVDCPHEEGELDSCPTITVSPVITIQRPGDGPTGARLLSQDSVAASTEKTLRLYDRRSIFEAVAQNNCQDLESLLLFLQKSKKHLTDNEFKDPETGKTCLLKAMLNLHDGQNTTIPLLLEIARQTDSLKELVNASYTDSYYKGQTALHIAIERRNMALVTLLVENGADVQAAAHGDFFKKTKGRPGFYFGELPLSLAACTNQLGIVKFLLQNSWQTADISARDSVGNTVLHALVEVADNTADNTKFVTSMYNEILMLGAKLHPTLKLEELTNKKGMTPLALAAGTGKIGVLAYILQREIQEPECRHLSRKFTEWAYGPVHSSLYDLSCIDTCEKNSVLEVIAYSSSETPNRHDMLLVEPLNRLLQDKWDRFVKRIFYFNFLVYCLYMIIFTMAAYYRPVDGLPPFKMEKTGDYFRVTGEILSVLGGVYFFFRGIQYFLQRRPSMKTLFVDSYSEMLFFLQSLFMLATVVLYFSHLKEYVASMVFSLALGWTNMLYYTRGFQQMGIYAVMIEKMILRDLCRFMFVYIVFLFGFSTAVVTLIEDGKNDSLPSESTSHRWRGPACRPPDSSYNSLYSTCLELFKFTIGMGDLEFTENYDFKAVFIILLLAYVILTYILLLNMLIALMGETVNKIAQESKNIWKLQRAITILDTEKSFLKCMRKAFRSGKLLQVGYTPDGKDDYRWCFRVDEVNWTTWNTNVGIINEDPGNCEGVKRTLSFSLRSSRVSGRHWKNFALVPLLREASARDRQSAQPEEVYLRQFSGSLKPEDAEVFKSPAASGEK

[2] = biological target: T1, Transient receptor potential cation channel subfamily V member 1; test: Agonist activity at human TRPV1 expressed in CHO cells assessed as intracellular calcium accumulation by Fluo-4 dye based FLIPR assay; assay type: cell-based
[3] = biological target: T1, Transient receptor potential cation channel subfamily V member 1; test: Partial agonist activity at human TRPV1 expressed in CHO cells assessed as intracellular calcium accumulation by Fluo-4 dye based FLIPR assay; assay type: cell-based
[4] = biological target: T1, Transient receptor potential cation channel subfamily V member 1; test: Antagonist activity at human TRPV1 expressed in CHOK1 cells assessed as reduction in NADA-induced intracellular calcium level preincubated with cells followed by NADA addition measured after 5 mins by Fluo-4 dye based FLIPR assay; assay type: cell-based
[5] = biological target: T1, Transient receptor potential cation channel subfamily V member 1; test: Antagonist activity at human TRPV1 expressed in CHOK1 cells assessed as reduction in heat-induced intracellular calcium level preincubated with cells for 5 mins followed by incubation under 45 degC by Fluo-4 dye based FLIPR assay; assay type: cell-based
[6] = biological target: T1, Transient receptor potential cation channel subfamily V member 1; test: Antagonist activity at human TRPV1 expressed in CHOK1 cells assessed as reduction in low pH-induced receptor activation by measuring decrease in intracellular calcium level preincubated with cells for 5 mins followed by incubation under pH 6 to 6.3 condition by Fluo-4 dye based FLIPR assay; assay type: cell-based
[7] = tested on: Mus musculus; test: Anti-hypothermic activity in NMRI mouse assessed as inhibition of capsaicin-induced […] in body temperature at 3 mg/kg, po pretreated for 15 mins followed by capsaicin treatment measured up to 120 mins relative to control; assay type: functional
[8] = tested on: Mus musculus; test: Anti-hypothermic activity in NMRI mouse assessed as inhibition of capsaicin-induced […] in body temperature at 10 mg/kg, po pretreated for 15 mins followed by capsaicin treatment measured up to 120 mins relative to control; assay type: functional
[9] = tested on: Mus musculus; test: Induction of hyperthermic effect in NMRI mouse assessed as increase in body temperature at 3 mg/kg, po; assay type: organism-based; settings: in vivo

| Ki ([1]; read-out: Ki) | Activity [2] | SMILES | further results |
| --- | --- | --- | --- |
| 51.9 nM |  | CC1CCN(c2nc(C(F)(F)F)ccc2CNC(=O)C(C)c2ccc(NC(=O)C(C)(C)C)c(F)c2)CC1 (centres undefined) |  |
|  | Active | CC1CCN(c2nc(C(F)(F)F)ccc2CNC(=O)C(C)c2ccc(N)c(N)c2)CC1 (centres undefined) |  |
| 2.4 nM |  | CC1CCN(c2nc(C(F)(F)F)ccc2CNC(=O)C(C)c2cc(Cl)c(N)c(Cl)c2)CC1 (centres undefined) |  |
|  | Active | CC1CCN(c2nc(C(F)(F)F)ccc2CNC(=O)C(C)c2ccc(Nc3ccccn3)cc2)CC1 (centres undefined) |  |
|  |  | COc1ccc(Nc2ccc(C(C)C(=O)NCc3ccc(C(F)(F)F)nc3N3CCC(C)CC3)cc2)cc1 (centres undefined) | Activity [3]: Active |
| 7.4 nM |  | CC1CCN(c2nc(C(F)(F)F)ccc2CNC(=O)C(C)c2ccc(NC(=O)c3ccccc3)c(F)c2)CC1 (centres undefined) |  |
|  | Active | CC1CCN(c2nc(C(F)(F)F)ccc2CNC(=O)C(C)c2ccc(N)c(F)c2)CC1 (centres undefined) |  |
|  |  | COc1cc(C(C)C(=O)NCc2ccc(C(F)(F)F)nc2N2CCC(C)CC2)cc(F)c1N (centres undefined) | Activity [3]: Active |
| 66.5 nM |  | CC1CCN(c2nc(C(F)(F)F)ccc2CNC(=O)C(C)c2ccc(Nc3ccc(Cl)cc3)cc2)CC1 (centres undefined) |  |
| 0.3 nM |  | CC1CCN(c2nc(C(F)(F)F)ccc2CNC(=O)Cc2cc(Cl)c(N)c(Cl)c2)CC1 | Ki [4]: 0.1 to 0.7 nM; IC50 [5]: 12.8 nM; IC50 [6]: 158 nM; inhibition in vivo at 3 mg/kg [7]: 57%; inhibition in vivo at 10 mg/kg [8]: 128%; deltaT [9]: > 1 °C |
| 20 nM |  | CC1CCN(c2nc(C(F)(F)F)ccc2CNC(=O)C(C)c2ccc(NC(=O)C3CC3)c(F)c2)CC1 (centres undefined) |  |
|  |  | CC1CCN(c2nc(C(F)(F)F)ccc2CNC(=O)C(C)c2ccc(Nc3ccc(F)cc3)cc2)CC1 (centres undefined) | Ki [1]: Not Active |
| 26.4 nM |  | CC1CCN(c2nc(C(F)(F)F)ccc2CNC(=O)C(C)c2ccc(NC(=O)C(C)C)c(F)c2)CC1 (centres undefined) |  |
|  | Active | Cc1cc(C(C)C(=O)NCc2ccc(C(F)(F)F)nc2N2CCC(C)CC2)ccc1N (centres undefined) |  |
| 5.3 nM |  | CC1CCN(c2nc(C(F)(F)F)ccc2CNC(=O)C(C)c2cc(O)c(N)c(F)c2)CC1 (centres undefined) |  |
|  | Active | CC1CCN(c2nc(C(F)(F)F)ccc2CNC(=O)C(C)c2ccc(Nc3ccccc3)cc2)CC1 (centres undefined) |  |
|  | Active | COc1cc(C(C)C(=O)NCc2ccc(C(F)(F)F)nc2N2CCC(C)CC2)ccc1N (centres undefined) |  |
| 21 nM |  | COc1cc(C(C)C(=O)NCc2ccc(C(F)(F)F)nc2N2CCC(C)CC2)cc(OC)c1N (centres undefined) |  |
